Experiments:
[1] = test system: GluN3-containing triheteromeric NMDARS; test: NMDAR-mediated EPSC at L1 synapses; format: cell-based, Sprague-Dawley rats; conditions: 10 and 100 micromolar; pure NMDAR-mediated EPSC, +30 mV; suppression greatest at the higher concentration
Text: (§1) FIG. 6 is a set of graphs showing the effect of D-serine on EPSCs for L1 and Str synapses of rat brains. The left panel depicts the average consecutive records (≤10) of pure NMDAR-mediated EPSC (pharmacologically isolated in a mixture containing NBQX and picrotoxin—PTX 50 micromolar, —to block AMPA-kainite receptors and GABAA-mediated inhibition) evoked in a single neuron (+30 mV) under the indicated conditions. The middle panel depicts the average percentage change in amplitude for both responses and the time course of these changes with D-serine administration times marked by the shaded region on the time plots.
(§2) The NMDARs at L1 inputs are GluN3-containing triheteromeric NMDARS, whereas the NMDARs at Str inputs are conventional diheteroemric NMDARs. To directly investigate Ca(2+)-permeability of NMDARs at L1 and Str synapses of Sprague-Dawley rats, shifts in reversal potential (Erev) of the synaptically activated currents were measured during local perfusion of isosmotic solutions with different extracellular Ca(2+) concentrations.

[2] = test system: LIII of the medial entorhinal cortex; test: Stereological cell count in LIII of the medial entorhinal cortex, Nissl-stained brain slices of pilocarpine treated rats; format: in vivo, Sprague-Dawley rats
Description: (§3) Male Sprague-Dawley rats weighing about 200 grams were treated with a single systemic treatment of the cholinergic muscarinic agonist pilocarpine to mimic temporal lobe epilepsy as described by Kumar and Buckmaster in Journal of Neuroscience 26: 4613-4623 (2006), which is incorporated by reference herein. The rats were unilaterally implanted with a brain cannula and allowed to recover for three days prior to being treated with pilocarpine. The pilocarpine dose was 380 mg/kg. Following control of status epilepticus with diazepam and a latent period, 90% of the pilocarpine treated rats developed chronic spontaneous seizures with an underlying pathology that mimicked the kind seen in human patients with temporal lobe epilepsy. After pilocarpine treatment, a test group of rats was administered D-serine and a control group of rats was administered aCSF daily for 12 days. The first administration occurred two hours after pilocarpine treatment. The rats were video-monitored forty hours per week for frank seizure activity for the duration of the infusions. Following the treatment regimen, the rats were euthanized and their brains removed following intra-aortal perfusion with a fixative. Horizontal brain slices 50 micrometers thick from both groups were Nissl-stained for stereological quantification of cell populations in LIII of the medial entorhinal cortex.

pilocarpine treated rats = test: Video-monitored seizure activity in pilocarpine treated rats (temporal lobe epilepsy model), D-serine infused at the medial entorhinal cortex; format: in vivo, Sprague-Dawley rats
Description: as §3, with “infusions.” for “infusions. Following the treatment regimen, the rats were euthanized and their brains removed following intra-aortal perfusion with a fixative. Horizontal brain slices 50 micrometers thick from both groups were Nissl-stained for stereological quantification of cell populations in LIII of the medial entorhinal cortex.”

[3] = target: T1, conventional diheteroemric NMDARs (Rattus norvegicus, UniProt P35439); test: NMDAR-mediated EPSC at Str synapses; format: cell-based, Sprague-Dawley rats; conditions: 10 and 100 micromolar; pure NMDAR-mediated EPSC, +30 mV
T1 construct: effect of D-serine on EPSCs for L1 and Str synapses of rat brains; from tissue; host or cells: rat brain; synaptic currents recorded from single neurons (Str input)
Text: as §1, §2

`N[C@H](CO)C(=O)O` [D-serine] was tested. Which “effect on L1 EPSCs” value [1] did it give?
The value was “significantly suppressed”.

And the “Mean est. cell count (left + right)” value ([2]; LIII of medial entorhinal cortex, after 12 days treatment following pilocarpine, naive control 159 ± 21, vehicle 77 ± 1)?
The value was 140 ± 10.

What about the “reduction of cell loss in LIII” value ([2]; after pilocarpine treatment) of the same compound?
Its value is “about 80%”.

What about the “cell loss in LIII from brain slice images” value ([2]; left medial entorhinal cortex of cannulated rats, FIG. 3) of the same compound?
The value was “prevented cell loss in LIII”.

And the “percentage of pilocarpine treated rats that developed seizures” value (pilocarpine treated rats; D-serine daily for 12 days, 90% without D-serine)?
The value was 25%.

What about the rats seizure-free (pilocarpine treated rats; pilocarpine treated rats, D-serine daily for 12 days via brain cannula, video-monitored forty hours per week) of the same compound?
The rats seizure-free was 75%.

What about the “effect on Str EPSCs” value [3] of the same compound?
The value was “neither consistent nor statistically significant”.

Reference: patent publication US10695310B2, “D-serine treatment for neurological disorders that cause seizures” (Florida State University Research Foundation, Inc., priority 2013, dated 2020)
